One molecule from the NIST ThermoML archive (doi:10.1016/j.jct.2018.06.026) can be followed below.

Numbers after ± are expanded uncertainties.

Data set [1] in a line: refractive index (Na D-line) (dimensionless); wn = mass fraction of the nth substance listed. The settings on record: 100 kPa, Liquid, Standard Abbe refractometry.
Data set [2] can be described thus: wn = mass fraction of the nth substance listed. To be noted: 100 kPa, Liquid, Vibrating tube method.

As a reminder, the refractive index is the speed of light in vacuum divided by its phase velocity in the sample. As usually defined, the mass density is mass per unit of volume.

For `[Cl-].[Na+]` [sodium chloride] + O, the refractive index came to 1.38027 ± 0.002 in data set [1] (293.15 K, w1 = 0.265) and 1.37386 ± 0.002 in data set [1] (313.15 K, w1 = 0.2717). Besides, the mass density is 1200.01 ± 10 kg/m3 in data set [2] (293.15 K, w1 = 0.265) and 1181.06 ± 10 kg/m3 in data set [2] (313.15 K, w1 = 0.2717).
